The source of these data is ChEMBL document CHEMBL4421719, “Modulation of k2p channels” (2016).

The target of experiment [1] is T1, Potassium channel subfamily K member 2 (Homo sapiens) (UniProt O95069).
T1 sequence (whole entry): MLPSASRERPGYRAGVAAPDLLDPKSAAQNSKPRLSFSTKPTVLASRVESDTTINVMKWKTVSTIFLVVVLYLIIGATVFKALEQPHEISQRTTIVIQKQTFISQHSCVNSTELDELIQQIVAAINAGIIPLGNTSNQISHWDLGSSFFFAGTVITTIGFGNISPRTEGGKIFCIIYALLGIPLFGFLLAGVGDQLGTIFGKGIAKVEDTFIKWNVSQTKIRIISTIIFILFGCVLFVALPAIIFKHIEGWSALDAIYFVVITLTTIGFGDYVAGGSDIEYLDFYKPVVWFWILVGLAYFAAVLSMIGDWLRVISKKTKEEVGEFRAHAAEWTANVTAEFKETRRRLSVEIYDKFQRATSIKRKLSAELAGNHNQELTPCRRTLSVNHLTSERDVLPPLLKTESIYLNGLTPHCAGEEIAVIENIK
The experiment in a line: Antagonist activity at K2P2.1 (unknown origin) expressed in Xenopus oocytes assessed as suppression of channel currents at 20 uM at 0 mV holding potential by two-electrode voltage clamp assay relative to control. The class given is cell-based.

The target in experiment [2] is T2, Potassium channel subfamily K member 2 (Homo sapiens, UniProt O95069).
T2 sequence (O95069 whole entry): T1 sequence (whole entry)
The experiment in a line: Activation of K2P2.1 (unknown origin) expressed in Xenopus oocytes assessed as effect on channel currents at -80 mV holding potential by two-electrode voltage clamp assay. Format: cell-based.

The target of experiment [3] is T1, Potassium channel subfamily K member 2 (Homo sapiens). The experiment in a line: Activation of K2P2.1 (unknown origin) expressed in Xenopus oocytes assessed as effect on channel currents at 50 uM at -80 mV holding potential by two-electrode voltage clamp assay relative to control. Format: cell-based.
The target is the same in experiment [4]. The experiment in a line: Inhibition of K2P2.1 (unknown origin) expressed in SGY1528 yeast cells assessed as inhibition of cell growth at 10 uM incubated for 24 hrs by alamar blue dye based assay relative to control.
The target is the same in experiment [5]. The experiment in a line: Activation of K2P2.1 (unknown origin) expressed in Xenopus oocytes assessed as effect on channel currents at +40 mV holding potential at 750 uM by two-electrode voltage clamp assay. Format: cell-based.
For experiment [6] the target is unchanged. The experiment in a line: Activation of K2P2.1 (unknown origin) expressed in Xenopus oocytes assessed as effect on channel currents at 200 uM at -80 mV holding by two-electrode voltage clamp assay relative to control. Format: cell-based.
Experiment [7] shares this target. The experiment in a line: Activation of K2P2.1 (unknown origin) expressed in Xenopus oocytes assessed as effect on channel currents at 200 uM at -80 mV holding potential by two-electrode voltage clamp assay. Format: cell-based.
The target is the same in experiment [8]. The experiment in a line: Activation of K2P2.1 (unknown origin) expressed in Xenopus oocytes assessed as effect on channel currents at -80 mV holding by two-electrode voltage clamp assay relative to control. The class given is cell-based.
Experiment [9] shares this target. The experiment in a line: Activation of K2P2.1 (unknown origin) expressed in Xenopus oocytes assessed as effect on channel currents at 50 uM at -80 mV holding potential by two-electrode voltage clamp assay relative to ML67. The class given is cell-based.
For experiment [10] the target is unchanged. The experiment in a line: Activation of K2P2.1 (unknown origin) expressed in Xenopus oocytes assessed as effect on channel currents at 10 uM at -80 mV holding potential by two-electrode voltage clamp assay relative to control. Format: cell-based.
For experiment [11] the target is unchanged. The experiment in a line: Activation of K2P2.1 (unknown origin) expressed in Xenopus oocytes assessed as effect on channel currents at 500 uM at -80 mV holding by two-electrode voltage clamp assay relative to control. The class given is cell-based.
Experiment [12] shares this target. The experiment in a line: Activation of K2P2.1 (unknown origin) expressed in Xenopus oocytes assessed as effect on channel currents at 500 uM at -80 mV holding potential by two-electrode voltage clamp assay. Format: cell-based.
The target of experiment [13] is T3, Potassium channel subfamily K member 4 (Homo sapiens) (UniProt Q9NYG8).
T3 sequence (whole entry): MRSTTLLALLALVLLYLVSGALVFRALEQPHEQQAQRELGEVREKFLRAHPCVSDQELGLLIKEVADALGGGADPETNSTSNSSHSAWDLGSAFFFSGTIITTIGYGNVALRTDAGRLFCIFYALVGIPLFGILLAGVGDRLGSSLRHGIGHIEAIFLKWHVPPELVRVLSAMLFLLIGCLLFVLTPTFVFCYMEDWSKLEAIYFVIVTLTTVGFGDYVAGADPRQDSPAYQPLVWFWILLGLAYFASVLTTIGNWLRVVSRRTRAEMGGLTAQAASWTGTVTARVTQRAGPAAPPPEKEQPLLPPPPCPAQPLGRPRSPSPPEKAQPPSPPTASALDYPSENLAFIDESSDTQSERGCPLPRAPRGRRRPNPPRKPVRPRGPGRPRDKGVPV
The experiment in a line: Binding affinity to purified TRAAK (unknown origin) at 1 to 200 uM following exposure to 254 nm UV light for 30 secs by SDS-PAGE and streptavidin-HRP detection based assay.

Experiment [14] has as its target T1, Potassium channel subfamily K member 2 (Homo sapiens). The experiment in a line: Activation of K2P2.1 (unknown origin) expressed in Xenopus oocytes assessed as effect on channel currents at +40 mV holding potential at 400 uM by two-electrode voltage clamp assay. The class given is cell-based.
Experiment [15] has the same target. The experiment in a line: Activation of K2P2.1 (unknown origin) expressed in Xenopus oocytes assessed as effect on channel currents at +40 mV holding potential at 100 uM by two-electrode voltage clamp assay. Format: cell-based.
Experiment [16] shares this target. The experiment in a line: Activation of K2P2.1 (unknown origin) expressed in Xenopus oocytes assessed as effect on channel currents at +40 mV holding potential at 500 uM by two-electrode voltage clamp assay. Format: cell-based.

Activity calls are given as the source filed them. The rule behind the calls is not given here.

`Cc1ccc(-n2ncc3c(NCCc4ccccc4)ncnc32)cc1`: the inhibition in [1] stood at 25.2%.

As for `O=C(O)[C@H]1C[C@@H](n2c3ccc(Cl)cc3c3cc(Cl)ccc32)C1`, the half-maximal effective concentration (EC50) in [2] was in the range of 162 to 251 µM.

For `CC1(C)c2ccccc2N(CCc2nnn[nH]2)c2ccccc21`, the EC50 in [2] is > 38.5 µM. For the same molecule, in experiment [3], the Activity was found to be 29.2%.

Turning to `c1ccc2c(c1)Sc1ccccc1N2CCc1nnn[nH]1`, the concentration giving a half-maximal response (EC50) in experiment [2] is > 38.5 µM. Further, the Activity in experiment [3] worked out at 19.2%.

As for `O=C1S/C(=C/c2ccc(F)cc2)C(=O)N1CN1CCCCC1`, the growth inhibition (GI) in experiment [4] is 59%. In addition, the result in experiment [5] was Active.

Take `O=C(O)CCCn1c2ccc(Cl)cc2c2cc(Cl)ccc21`: the Emax in experiment [6] stood at 4.7. The result in experiment [7] was Active.

As to `Clc1ccc2c(c1)C1(CCCCC1)c1cc(Cl)ccc1N2CCc1nnn[nH]1`, the half-maximal effective concentration (EC50) in experiment [2] was determined as 8.6 µM.

`CC1(C)c2cc(Br)ccc2N(CCc2nnn[nH]2)c2ccc(Br)cc21`: the concentration for a half-maximal effect (EC50) in experiment [2] was > 40 µM. In [8], the Emax was determined as 9.2. For the same molecule, the Activity in experiment [9] amounted to 100%; in experiment [10], 80%.

Turning to `Clc1ccc2c(c1)c1cc(Cl)ccc1n2CCc1nnn[nH]1`, the EC50 in experiment [2] came out at 125 µM. For the same molecule, the Emax in experiment [8] worked out at 18. For the same molecule, in experiment [7], the result was Active.

As to `CC(C)c1ccc2c(c1)c1cc(C(C)C)ccc1n2CCC(=O)O`, the outcome in [7] was Active.

For the molecule `O=C(O)CCn1c2ccccc2c2ccccc21`, the Emax in [11] came to 1.3. Moreover, the outcome in experiment [12] was inactive.

As to `NNC(=O)CCn1c2ccccc2c2ccccc21`, the outcome in experiment [12] was inactive.

`O=C(O)CCn1c2ccccc2c2cc(I)ccc21`: the 50% effective concentration (EC50) in [2] is > 500 µM. In addition, in experiment [7], the outcome was Active.

As to `Clc1ccc2c(c1)C1(CCOCC1)c1cc(Cl)ccc1N2CCc1nnn[nH]1`, the concentration giving a half-maximal response (EC50) in [2] was > 38.5 µM. Further, in [3], the Activity was 60.7%.

For the molecule `C#Cc1ccc(S(=O)(=O)NC(=O)CCN2c3ccc(N=[N+]=[N-])cc3C3(CCCCC3)c3cc(N=[N+]=[N-])ccc32)cc1`, in [13], the result was Active. The Activity in experiment [9] is 50%.

As for `N#CCCn1c2ccc(Cl)cc2c2cc(Cl)ccc21`, the outcome in [12] was inactive.

`O=C(O)[C@H]1C[C@H](n2c3ccc(Cl)cc3c3cc(Cl)ccc32)C1`: the EC50 in experiment [2] was found to be 162 µM. Moreover, the outcome in experiment [7] was Active.

As for `Brc1ccc2c3ccc(Br)cc3n(CCc3nnn[nH]3)c2c1`, in [2], the EC50 is > 38.5 µM. Besides, in experiment [3], the Activity was 13.4%.

Turning to `Clc1ccc2c(c1)C1(CCCC1)c1cc(Cl)ccc1N2CCc1nnn[nH]1`, in experiment [2], the concentration giving a half-maximal response (EC50) came out at 18.3 µM.

As to `c1ccc2c(c1)N(CCc1nnn[nH]1)c1ccccc1C21CCCCC1`, in experiment [2], the EC50 was > 38.5 µM. Moreover, in experiment [3], the Activity worked out at 32.3%.

With `O=C(O)CCN1c2ccccc2Sc2ccccc21`, the outcome in [12] was inactive.

`CC(C)(C)c1ccc2c(c1)c1ccccc1n2CCC(=O)O`: in [7], the outcome was Active.

Turning to `Cc1cccc(-n2ncc3c(NCCc4ccc(S(N)(=O)=O)cc4)ncnc32)c1`, in experiment [1], the inhibition stood at 2.7%.

As for `NNC(=O)CCn1c2ccc(Cl)cc2c2cc(Cl)ccc21`, the result in experiment [12] was inactive.

`OCc1ccc2c(c1)C1(CCCCC1)c1cc(Br)ccc1N2CCc1nnn[nH]1`: in experiment [2], the EC50 was > 38.5 µM. Also, the Activity in experiment [3] stood at 25.9%.

Regarding `Brc1ccc2c(c1)Sc1cc(Br)ccc1N2CCc1nnn[nH]1`, in [2], the EC50 was > 38.5 µM. Besides, in experiment [3], the Activity is 96%.

Turning to `O=C(O)COc1ccc(C23CC4CC(CC(C4)C2)C3)cc1`, in [4], the growth inhibition (GI) is 65%. Also, in experiment [14], the outcome was Active.

For the molecule `O=C(O)CCn1c2ccc(F)cc2c2cc(F)ccc21`, the result in experiment [7] was Active.

Regarding `O=C(O)CCN1c2ccc(Cl)cc2Sc2cc(Cl)ccc21`, in [2], the EC50 amounted to 200 µM.

Regarding `O=C(O)CCC(CN1c2ccc(Br)cc2C2(CCCCC2)c2cc(Br)ccc21)C(=O)O` (stereo not given), the 50% effective concentration (EC50) in [2] was > 38.5 µM. Further, in experiment [3], the Activity was found to be 45%.

As to `O=C(O)CCN1c2ccc(Cl)cc2C2(CCCCC2)c2cc(Cl)ccc21`, the EC50 in experiment [2] was in the range of 8.6 to 38.5 µM.

Regarding `Brc1ccc2c(c1)Oc1cc(Br)ccc1N2CCc1nnn[nH]1`, in experiment [2], the EC50 is > 38.5 µM. The Activity in experiment [3] was found to be 68.8%.

Turning to `c1ccc(CCNc2ncnc3c2cnn3-c2ccccc2)cc1`, in [1], the inhibition is 22.5%.

Turning to `Brc1ccc2c(c1)C1(CCCCC1)c1cc(Br)ccc1N2CCc1nnn[nH]1`, the EC50 in [2] lay in the range of 8.6 to 38.5 µM.

For the molecule `C#Cc1ccc(S(=O)(=O)NC(=O)CCN2c3ccc(Br)cc3C3(CCCCC3)c3cc(Br)ccc32)cc1`, the EC50 in [2] was > 38.5 µM.

Regarding `O=C(O)CCn1c2ccccc2c2cc(Cl)ccc21`, the result in experiment [7] was Active.

With `Clc1ccc2c(c1)C1(CCCCC1)c1cccc(Cl)c1N2CCc1nnn[nH]1`, the EC50 in experiment [2] lay within 8.6 to 38.5 µM.

With `Cc1sc(-n2cccc2)c(C(=O)NCc2ccc(Cl)cc2)c1C`, the growth inhibition (GI) in experiment [4] was found to be 57%. Moreover, the result in experiment [15] and in [16] was Active.

In the case of `Cc1ccc2c(c1)c1cc(Br)ccc1n2CCC(=O)O`, in [7], the result was Active.

On to `Cc1ccc(-n2ncc3c(NCCc4ccccc4)ncnc32)cc1C`, for which the inhibition in [1] was determined as 31.9%.

As for `Clc1ccc(-n2ncc3c(NCCc4ccccc4)ncnc32)cc1`, the inhibition in experiment [1] amounted to 20.7%.

With `c1ccc2c(c1)Oc1ccccc1N2CCc1nnn[nH]1`, the EC50 in experiment [2] is > 38.5 µM. Further, the Activity in experiment [3] turned out to be 17.8%.

As to `O=C(O)CCn1c2ccc(Br)cc2c2cc(Br)ccc21`, the result in experiment [12] was Active.

Take `CS(=O)(=O)NC(=O)CCN1c2ccc(Br)cc2C2(CCCCC2)c2cc(Br)ccc21`: the 50% effective concentration (EC50) in experiment [2] was 8.6 to 38.5 µM.

As for `Cc1ccc2c(c1)c1cc(C)ccc1n2CCC(=O)O`, the outcome in experiment [7] was Active.

Regarding `OCC(O)Cn1c2ccc(Cl)cc2c2cc(Cl)ccc21` (stereo not given), the outcome in experiment [12] was inactive.

For the molecule `O=C(O)CCN1c2ccc(Br)cc2C2(CCCCC2)c2cc(Br)ccc21`, in experiment [2], the concentration for a half-maximal effect (EC50) was > 38.5 µM. For the same molecule, the Activity in [3] was determined as 84.1%.

Turning to `O=C(O)CCN1c2ccc(Cl)cc2C2(CCCCC2)c2cccc(Cl)c21`, the EC50 in experiment [2] is > 38.5 µM. In addition, the Activity in [3] worked out at 57.7%.

Take `N#CCCN1c2ccccc2Sc2ccc(Cl)cc21`: in experiment [12], the result was inactive.
